According to ChEMBL document CHEMBL5131409, “Synthesis and characterization of chiral 6-azaspiro[2.5]octanes as potent and selective antagonists of the M4 muscarinic acetylcholine receptor” (Bioorg Med Chem Lett, 2022):

How the values were obtained:
[1] = Cmax in rat brain at 3 mg/kg, ip; type: ADME, organism-based; design: dose 3 mg/kg, route ip
[2] = AUC (0.25 to last) in rat plasma at 3 mg/kg, ip; type: ADME, organism-based; design: dose 3 mg/kg, route ip
[3] = Volume of distribution in rat at 3 mg/kg, iv; type: ADME, organism-based; details: in vivo
[4] = target: T1, Muscarinic acetylcholine receptor M4 (Homo sapiens) (UniProt P08173); experiment: Antagonist activity at human muscarinic acetylcholine M4 receptor expressed in CHO cells co-expressing Gqi5 assessed as minimal acetylcholine response by calcium mobilization assay relative to control; type: functional, cell-based; design: scale not given: the % may be the effect or the level left; details: filed as antagonist
T1 sequence (whole entry): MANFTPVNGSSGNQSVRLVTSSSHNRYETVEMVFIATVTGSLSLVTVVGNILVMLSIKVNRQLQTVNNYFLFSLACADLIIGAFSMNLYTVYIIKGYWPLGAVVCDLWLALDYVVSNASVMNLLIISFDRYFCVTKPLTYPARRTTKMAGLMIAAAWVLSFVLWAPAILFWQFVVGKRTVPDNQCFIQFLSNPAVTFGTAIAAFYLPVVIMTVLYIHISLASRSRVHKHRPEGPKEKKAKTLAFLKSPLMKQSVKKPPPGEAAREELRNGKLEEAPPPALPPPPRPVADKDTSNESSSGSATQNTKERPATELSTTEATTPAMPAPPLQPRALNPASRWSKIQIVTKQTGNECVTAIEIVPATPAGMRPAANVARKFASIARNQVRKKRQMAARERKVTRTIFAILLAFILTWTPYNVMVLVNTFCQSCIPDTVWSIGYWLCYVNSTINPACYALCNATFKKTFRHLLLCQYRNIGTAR

[5] = AUC (0.25 to last) in mouse plasma at 3 mg/kg, ip; type: ADME, organism-based; design: dose 3 mg/kg, route ip
[6] = Cmax in mouse brain at 3 mg/kg, ip; type: ADME, organism-based; design: dose 3 mg/kg, route ip

Cmax [1]: 477 ng/g
AUC [2]: 9550 ng·h/mL
Vd [3]: 147 L/kg
Activity [4]: 3.2%
AUC [5]: 10500 ng·h/mL
Cmax [6]: 738 ng/g
Compound: CC(=O)Nc1ccc(-c2ccc(NC[C@@H]3CC34CCN(CC3CCOCC3)CC4)nn2)cc1
